According to ChEMBL document CHEMBL1149936, “Discovery of selective dopamine D3 ligands: II. 2-[4-[3-(4-aryl-1-piperazinyl)propoxy]phenyl]benzimidazole partial agonists” (Bioorg Med Chem Lett, 1995):
The source made the active and inactive calls. The rule behind the calls is not given here.

What was measured:
D(3) dopamine receptor = D(3) dopamine receptor (Homo sapiens, UniProt P35462); assay: Binding affinity towards cloned human Dopamine D3 receptor in CHO cells using [3H]spiperone as radioligand; assay type: cell-based
D(3) dopamine receptor, sequence (P35462 whole entry): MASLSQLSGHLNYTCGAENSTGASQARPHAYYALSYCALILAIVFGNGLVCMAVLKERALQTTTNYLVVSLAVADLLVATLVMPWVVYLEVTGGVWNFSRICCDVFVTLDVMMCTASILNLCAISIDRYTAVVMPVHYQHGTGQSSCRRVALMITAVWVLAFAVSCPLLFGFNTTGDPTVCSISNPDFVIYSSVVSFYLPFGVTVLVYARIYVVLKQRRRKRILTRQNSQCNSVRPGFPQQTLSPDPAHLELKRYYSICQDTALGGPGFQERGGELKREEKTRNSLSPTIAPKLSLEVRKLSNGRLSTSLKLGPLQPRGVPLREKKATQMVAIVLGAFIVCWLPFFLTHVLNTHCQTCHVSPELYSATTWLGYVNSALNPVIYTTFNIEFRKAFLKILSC

D(2) dopamine receptor = D(2) dopamine receptor (Homo sapiens, UniProt P14416); assay: Binding affinity towards cloned human Dopamine D2 receptor in CHO cells using [3H]spiperone as radioligand; assay type: cell-based
D(2) dopamine receptor, sequence (P14416 whole entry): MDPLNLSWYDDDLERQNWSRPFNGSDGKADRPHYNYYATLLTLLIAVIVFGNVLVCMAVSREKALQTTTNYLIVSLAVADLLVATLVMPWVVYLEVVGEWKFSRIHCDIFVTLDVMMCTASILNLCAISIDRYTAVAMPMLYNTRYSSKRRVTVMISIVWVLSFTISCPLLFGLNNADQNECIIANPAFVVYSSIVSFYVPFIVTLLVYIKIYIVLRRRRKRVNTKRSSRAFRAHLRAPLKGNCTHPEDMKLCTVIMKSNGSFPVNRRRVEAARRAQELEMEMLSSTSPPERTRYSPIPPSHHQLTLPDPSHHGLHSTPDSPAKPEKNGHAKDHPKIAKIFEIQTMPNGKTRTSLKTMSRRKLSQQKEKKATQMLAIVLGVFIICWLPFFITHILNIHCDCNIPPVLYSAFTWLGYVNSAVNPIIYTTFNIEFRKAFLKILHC

Mus musculus = assay: Inhibitory effect on exploratory locomotor activity in mice after ip administration; assay type: functional
Rattus norvegicus [1] = assay: Inhibitory effect on exploratory locomotor activity in rats after ip administration; assay type: functional
Rattus norvegicus [2] = assay: Inhibitory effect on exploratory locomotor activity in rats at a dose of 30 mg/kg after oral administration; no effect; assay type: functional, organism-based; design: dose 30 mg/kg

Compound	Ki (D(3) dopamine receptor)	Ki (D(2) dopamine receptor)	ED50 (Mus musculus)	ED50 (Rattus norvegicus [1])	ED50 (Rattus norvegicus [2])
Clc1ccccc1N1CCN(CCCOc2ccc(-c3nc4ccccc4[nH]3)cc2)CC1	18 nM	126 nM			
Clc1ccc(N2CCN(CCCOc3ccc(-c4nc5ccccc5[nH]4)cc3)CC2)cc1	27 nM	865 nM			
CCCSc1ccccc1N1CCN(CCCOc2ccc(-c3nc4ccccc4[nH]3)cc2)CC1		8 nM			
COc1ccccc1N1CCN(CCCOc2ccc(-c3nc4ccccc4[nH]3)cc2)CC1	1.7 nM	8.8 nM			
c1ccc(N2CCN(CCCOc3ccc(-c4nc5ccccc5[nH]4)cc3)CC2)nc1		70 nM			
c1ccc(N2CCN(CCCOc3ccc(-c4nc5ccccc5[nH]4)cc3)CC2)cc1	1.5 nM	406 nM	2.3 mg/kg	7.1 mg/kg	inactive
c1cnc(N2CCN(CCCOc3ccc(-c4nc5ccccc5[nH]4)cc3)CC2)nc1		269 nM			
COc1ccc(N2CCN(CCCOc3ccc(-c4nc5ccccc5[nH]4)cc3)CC2)cc1	130 nM	293 nM			
CN1CCN(CCCOc2ccc(-c3nc4ccccc4[nH]3)cc2)CC1	2000 nM	> 3330 nM			
Clc1cccc(N2CCN(CCCOc3ccc(-c4nc5ccccc5[nH]4)cc3)CC2)c1	155 nM	1400 nM			
